In patent publication US10285983B2, “3-(1H-pyrrolo[2,3-B]pyridin-2-yl)-1H-pyrazolo[3,4-B] pyridines and therapeutic uses thereof” (Samumed, LLC, priority 2015, dated 2019):
pEC50: −log10 of the molar value.

Columns and labels:
[1] = test system: Wnt activity (Sp5-Luc reporter, SW480 colon carcinoma cells); test: Wnt activity screening assay, Sp5-Luc reporter gene in SW480 cells; assay type: cell-based; conditions: Homo sapiens; for inhibition at 10 µM: given for EC50 >10 μM, read-out: percent inhibition at 10 μM; for pEC50: overnight incubation
Outline: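 SW480 colon carcinoma cells stably expressing firefly luciferase under a human Sp5 promoter (eight TCF/LEF sites), plated in 1% FBS medium. 10-point 1:3 dilutions from 10 μM, 0.1% DMSO final, overnight at 37 °C; luminescence normalized to DMSO, four-parameter fit for EC50, % inhibition at 10 μM if EC50 >10 μM.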

[2] = test system: primary human mesenchymal stem cells (hMSCs); test: Chondrogenesis induction in hMSCs (nodule count, Rhodamine B/Nile Red); assay type: cell-based; conditions: 144 h, 6 days; for Emax: relative to TGF-β3 (10 ng/mL) positive control, read-out: Max. Activity as % TGF-β3 activity; for EC50: concentration required to induce 50% levels of chondrogenesis vs TGF-β3, read-out: Conc (nM) of 50% TGF-β3 activity
Description: Representative compounds were screened using primary human mesenchymal stem cells (hMSCs) to determine their ability to induce chondrogenesis (process by which cartilage is developed).
Primary human mesenchymal stem cells (hMSCs) were purchased from Lonza (Walkersville, Md.) and expanded in Mesenchymal Stem Cell Growth Media (Lonza). Cells between passage 3 and 6 were used for the experiments.
Each compound was dissolved in DMSO as a 10 mM stock and used to prepare compound source plates. Serial dilution (1:3, 6-point dose-response curves from 2700 nM to 10 nM) and compound transfer was performed using the ECHO 550 (Labcyte, Sunnyvale, Calif.) into 96-well clear bottom assay plates (Greiner Bio-One) with appropriate DMSO backfill for a final DMSO concentration of 0.03%. hMSCs were plated at 20,000 cells/well in 250 μL/well Incomplete Chondrogenic Induction Medium (Lonza; DMEM, dexamethasone, ascorbate, insulin-transferrin-selenium [ITS supplement], gentamycin-amphotericin [GA-1000], sodium pyruvate, proline and L-glutamine). TGF-β3 (10 ng/mL) was used as a positive control for differentiation while negative control wells were treated with 75 nL DMSO for normalization and calculating EC50 values. Cells were incubated at 37° C. and 5% CO2 for 6 days. To image chondrogenic nodules, the cells were fixed using 4% formaldehyde (Electron Microscopy Sciences), and stained with 2 μg/mL Rhodamine B (Sigma-Aldrich) and 20 μM Nile Red (Sigma-Aldrich) [Johnson K., et. al, A Stem Cell-Based Approach to Cartilage Repair, Science, (2012), 336(6082), 717-721]. The nodules imaged (4 images per well at 4× magnification) by excitation at 531 nm and emission at 625 nm and quantified using the CellInsight CX5 (Thermo Scientific). Number of nodules in each well was normalized to the average of 3 DMSO treated wells on the same plate using Excel (Microsoft Inc.). The normalized averages (fold change over DMSO) of 3 replicate wells for each compound concentration were calculated. Due to solubility limitations of some of the compounds, curve fitting was incomplete leading to inaccurate EC50 determinations.
Using TGF-β3 as a positive control, the concentration of representative compounds required to induce 50% levels of chondrogenesis is reported. In addition, the maximum activity of each compound and the respective dose that each compound reached maximum chondrogenesis activity is reported.

`CN(C)Cc1cncc(-c2cnc3[nH]nc(-c4cc5c(-c6cccnc6)ccnc5[nH]4)c3c2)c1` [Compound 97, N,N-Dimethyl-1-(5-(3-(4-(pyridin-3-yl)-1H-pyrrolo[2,3-b]pyridin-2-yl)-1H-pyrazolo[3,4-b]pyridin-5-yl)pyridin-3-yl)methanamine] was tested, and the inhibition at 10 µM [1] was 0%, the pEC50 [1] was under 5.00 and the Emax [2] was 49%.

`CCNCc1cncc(-c2cnc3[nH]nc(-c4cc5c(-c6ccccc6F)ccnc5[nH]4)c3c2)c1` [Compound 62, N-((5-(3-(4-(2-Fluorophenyl)-1H-pyrrolo[2,3-b]pyridin-2-yl)-1H-pyrazolo [3,4-b]pyridin-5-yl)pyridin-3-yl)methyl)ethanamine] gave an inhibition at 10 µM [1] of 0%, a pEC50 [1] of under 5.00 and an EC50 [2] of 100 nM. For the same compound, the Emax [2] was 55%.

`CCCCC(=O)Nc1cncc(-c2cnc3[nH]nc(-c4cc5cccnc5[nH]4)c3c2)c1` [Compound 271, N-(5-(3-(1H-Pyrrolo[2,3-b]pyridin-2-yl)-1H-pyrazolo[3,4-b]pyridin-5-yl)pyridin-3-yl)pentanamide] showed an inhibition at 10 µM [1] of 6.5%, a pEC50 [1] of under 5.00 and an EC50 [2] of 900 nM. The Emax [2] was 260%.

`CCCC(=O)Nc1cncc(-c2cnc3[nH]nc(-c4cc5c(-c6ccncc6)ccnc5[nH]4)c3c2)c1` [Compound 129, N-(5-(3-(4-(Pyridin-4-yl)-1H-pyrrolo[2,3-b]pyridin-2-yl)-1H-pyrazolo[3,4-b]pyridin-5-yl)pyridin-3-yl)butyramide] showed an inhibition at 10 µM [1] of 35%, a pEC50 [1] of under 5.00 and an EC50 [2] of 30 nM. For the same compound, the Emax [2] was 50%.

With `Fc1ccc(-c2ccnc3[nH]c(-c4n[nH]c5ncc(-c6cncc(CN7CCCC7)c6)cc45)cc23)cc1` [Compound 42, 3-(4-(4-Fluorophenyl)-1H-pyrrolo[2,3-b]pyridin-2-yl)-5-(5-(pyrrolidin-1-ylmethyl)pyridin-3-yl)-1H-pyrazolo[3,4-b]pyridine] the inhibition at 10 µM [1] was 26%, the pEC50 [1] was under 5.00 and the Emax [2] was 25%.

With `c1cncc(-c2cnc3[nH]nc(-c4cc5cccnc5[nH]4)c3c2)c1` [Compound 256, 5-(Pyridin-3-yl)-3-(1H-pyrrolo[2,3-b]pyridin-2-yl)-1H-pyrazolo[3,4-b]pyridine] the pEC50 [1] was 5.97 and the Emax [2] was 11%.

`CC(C)Nc1cncc(-c2cnc3[nH]nc(-c4cc5c(-c6ccccc6F)ccnc5[nH]4)c3c2)c1` [Compound 68, 5-(3-(4-(2-Fluorophenyl)-1H-pyrrolo[2,3-b]pyridin-2-yl)-1H-pyrazolo[3,4-b]pyridin-5-yl)-N-isopropylpyridin-3-amine] gave an inhibition at 10 µM [1] of 4.6%, a pEC50 [1] of under 5.00 and an EC50 [2] of 10 nM. For the same compound, the Emax [2] was 82%.

`CCCCC(=O)Nc1cncc(-c2cnc3[nH]nc(-c4cc5c(-c6ccccc6F)ccnc5[nH]4)c3c2)c1` [Compound 75, N-(5-(3-(4-(2-Fluorophenyl)-1H-pyrrolo[2,3-b]pyridin-2-yl)-1H-pyrazolo [3,4-b]pyridin-5-yl)pyridin-3-yl)pentanamide] was tested, and the inhibition at 10 µM [1] was 2.1%, the pEC50 [1] was under 5.00 and the EC50 [2] was 30 nM. It also gave an Emax [2] of 82%.

`CC(C)(C)CC(=O)Nc1cncc(-c2cnc3[nH]nc(-c4cc5cccnc5[nH]4)c3c2)c1` [Compound 268, N-(5-(3-(1H-Pyrrolo[2,3-b]pyridin-2-yl)-1H-pyrazolo[3,4-b]pyridin-5-yl)pyridin-3-yl)-3,3-dimethylbutanamide] showed a pEC50 [1] of 6.07 and an Emax [2] of 23%.

`Cn1cc(-c2cnc3[nH]nc(-c4cc5cccnc5[nH]4)c3c2)cn1` [Compound 652, 5-(1-Methyl-1H-pyrazol-4-yl)-3-(1H-pyrrolo[2,3-b]pyridin-2-yl)-1H-pyrazolo[3,4-b]pyridine] was tested, and the inhibition at 10 µM [1] was 23.4%, the pEC50 [1] was under 5.00 and the EC50 [2] was 300 nM. The Emax [2] was 52%.

`Cc1ccncc1-c1cnc2[nH]nc(-c3cc4c(-c5ccc(F)cc5)ccnc4[nH]3)c2c1` [Compound 33, 3-(4-(4-Fluorophenyl)-1H-pyrrolo[2,3-b]pyridin-2-yl)-5-(4-methylpyridin-3-yl)-1H-pyrazolo[3,4-b]pyridine] showed an inhibition at 10 µM [1] of 2.7%, a pEC50 [1] of under 5.00 and an EC50 [2] of 900 nM. For the same compound, the Emax [2] was 108%.

`CCNCc1cncc(-c2cnc3[nH]nc(-c4cc5c(-c6cccnc6)ccnc5[nH]4)c3c2)c1` [Compound 90, N-((5-(3-(4-(Pyridin-3-yl)-1H-pyrrolo[2,3-b]pyridin-2-yl)-1H-pyrazolo[3,4-b]pyridin-5-yl)pyridin-3-yl)methyl)ethanamine] was tested, and the inhibition at 10 µM [1] was 8.2%, the pEC50 [1] was under 5.00 and the EC50 [2] was 10 nM. It also gave an Emax [2] of 92%.

With `c1cncc(-c2ccnc3[nH]c(-c4n[nH]c5ncc(-c6cncc(CN7CCCCC7)c6)cc45)cc23)c1` [Compound 99, 5-(5-(Piperidin-1-ylmethyl)pyridin-3-yl)-3-(4-(pyridin-3-yl)-1H-pyrrolo[2,3-b]pyridin-2-yl)-1H-pyrazolo[3,4-b]pyridine] the inhibition at 10 µM [1] was 26%, the pEC50 [1] was under 5.00 and the Emax [2] was 44%.

Work on `CC(C)CC(=O)Nc1cncc(-c2cnc3[nH]nc(-c4cc5c(-c6cccnc6)ccnc5[nH]4)c3c2)c1` [Compound 86, 3-Methyl-N-(5-(3-(4-(pyridin-3-yl)-1H-pyrrolo[2,3-b]pyridin-2-yl)-1H-pyrazolo[3,4-b]pyridin-5-yl)pyridin-3-yl)butanamide] yielded an inhibition at 10 µM [1] of 2.7%, a pEC50 [1] of under 5.00 and an Emax [2] of 44%.

`CCC(=O)Nc1cncc(-c2cnc3[nH]nc(-c4cc5c(N6CCCCC6)ccnc5[nH]4)c3c2)c1` [Compound 169, N-(5-(3-(4-(Piperidin-1-yl)-1H-pyrrolo[2,3-b]pyridin-2-yl)-1H-pyrazolo[3,4-b]pyridin-5-yl)pyridin-3-yl)propionamide] gave a pEC50 [1] of 6.06, an EC50 [2] of 900 nM and an Emax [2] of 183%.

`O=C(Nc1cncc(-c2cnc3[nH]nc(-c4cc5cccnc5[nH]4)c3c2)c1)c1ccccc1` [Compound 263, N-(5-(3-(1H-Pyrrolo[2,3-b]pyridin-2-yl)-1H-pyrazolo[3,4-b]pyridin-5-yl)pyridin-3-yl)benzamide] gave an inhibition at 10 µM [1] of 29.7%, a pEC50 [1] of under 5.00 and an Emax [2] of 22%.

For `CN(C)Cc1cncc(-c2cnc3[nH]nc(-c4cc5c(-c6cccc(F)c6)ccnc5[nH]4)c3c2)c1` [Compound 13, 1-(5-(3-(4-(3-Fluorophenyl)-1H-pyrrolo[2,3-b]pyridin-2-yl)-1H-pyrazolo [3,4-b]pyridin-5-yl)pyridin-3-yl)-N,N-dimethylmethanamine], the inhibition at 10 µM [1] was 22.6%, the pEC50 [1] was under 5.00 and the EC50 [2] was 100 nM. For the same compound, the Emax [2] was 102%.

In the case of `O=C(CC1CCNCC1)Nc1cncc(-c2cnc3[nH]nc(-c4cc5c(-c6ccncc6)ccnc5[nH]4)c3c2)c1` [Compound 577], the inhibition at 10 µM [1] was 12.5%, the pEC50 [1] was under 5.00 and the Emax [2] was 27%.

`Nc1cncc(-c2cnc3[nH]nc(-c4cc5c(-c6ccncc6)ccnc5[nH]4)c3c2)c1` [Compound 115, 5-(3-(4-(Pyridin-4-yl)-1H-pyrrolo[2,3-b]pyridin-2-yl)-1H-pyrazolo[3,4-b]pyridin-5-yl)pyridin-3-amine] showed an inhibition at 10 µM [1] of 5.6%, a pEC50 [1] of under 5.00 and an Emax [2] of 12%.

`CN1CCN(c2ccnc3[nH]c(-c4n[nH]c5ncc(-c6cn[nH]c6)cc45)cc23)CC1` [Compound 635, 3-(4-(4-Methylpiperazin-1-yl)-1H-pyrrolo[2,3-b]pyridin-2-yl)-5-(1H-pyrazol-4-yl)-1H-pyrazolo[3,4-b]pyridine] gave an inhibition at 10 µM [1] of 5.8%, a pEC50 [1] of under 5.00 and an Emax [2] of 20%.

`c1ccc(CNCc2cncc(-c3cnc4[nH]nc(-c5cc6c(-c7ccncc7)ccnc6[nH]5)c4c3)c2)cc1` [Compound 136, N-Benzyl-1-(5-(3-(4-(pyridin-4-yl)-1H-pyrrolo[2,3-b]pyridin-2-yl)-1H-pyrazolo[3,4-b]pyridin-5-yl)pyridin-3-yl)methanamine] gave an inhibition at 10 µM [1] of 0%, a pEC50 [1] of under 5.00 and an EC50 [2] of 2700 nM. For the same compound, the Emax [2] was 93%.
